Test results published in PubChem BioAssay AID1996.
Converted amounts (≈) assume the structure as drawn.

Conditions: buffer; pH 7.4; 200.0 µM

For `CCOc1ccc2nc(SCC(=O)NCc3ccc(OC)cc3)[nH]c2c1`, which solubility kinetic is on record?
The solubility kinetic was 20.2 µg/mL (≈ 54.4 µM).

With `CCCNC(=S)N1CCC(NC(=O)Nc2ccc(C)cc2)CC1` as the molecule, how does the solubility kinetic read?
The solubility kinetic was 4.9 µg/mL (≈ 14.6 µM).

For `CCOc1ccccc1NC(=S)N1CCCc2ccccc21`, which solubility kinetic is on record?
Its solubility kinetic is 10.5 µg/mL (≈ 33.6 µM).

For `Nc1cc(Nc2ccccc2)c2nonc2c1[N+](=O)[O-]`, which solubility kinetic is on record?
Its solubility kinetic is 0.5 µg/mL (≈ 1.84 µM).

Which solubility kinetic does the source give for `Oc1ccccc1Oc1ncc(Br)c(Cl)n1` here?
Its solubility kinetic is over 45.2 µg/mL.

For `CCc1nc(N2CCCCC2C(=O)O)c2oc3ccccc3c2n1` (stereo not given), which solubility kinetic is on record?
Its solubility kinetic is over 48.8 µg/mL.

For `CCN(C(=O)Cn1c([N+](=O)[O-])cnc1C)c1ccccc1`, which solubility kinetic is on record?
The solubility kinetic was over 43.2 µg/mL.

With `COc1ccccc1C(=O)NCCC(=O)NCC1CCCO1` (stereo not given) as the molecule, how does the solubility kinetic read?
Its solubility kinetic is over 46 µg/mL.

For `CC(NC(=O)CN(C)CC(=O)Nc1cccc(F)c1)c1ccccc1` (stereo not given), which solubility kinetic is on record?
Its solubility kinetic is over 51.5 µg/mL.

Which solubility kinetic does the source give for `CCC(C)c1ccc(S(=O)(=O)Nc2cccnc2)cc1.Cl` (stereo not given) here?
Its solubility kinetic is 35.9 µg/mL.

For `O=C(COC(=O)C1CC1)Nc1ccc(Cl)cc1Cl`, which solubility kinetic is on record?
The solubility kinetic was 41.9 µg/mL (≈ 145 µM).

Which solubility kinetic does the source give for `O=C(Nc1ccc(F)cc1)C1C2CCC3C(CCC21)C3(Cl)Cl` (stereo not given) here?
Its solubility kinetic is 0.8 µg/mL (≈ 2.34 µM).

With `COCCn1c(-c2ccc(F)cc2)nc2cccnc21` as the molecule, how does the solubility kinetic read?
The solubility kinetic was 36.1 µg/mL (≈ 133 µM).

For `COC(=O)c1ccccc1-n1c(C)nc(=O)c(-c2ccccc2)c1C`, which solubility kinetic is on record?
The solubility kinetic was over 50.2 µg/mL.

For `CC(C)(C)c1ccc(-c2noc(CCC(=O)Nc3cccnc3)n2)cc1`, which solubility kinetic is on record?
Its solubility kinetic is 3.1 µg/mL (≈ 8.85 µM).

For `CCN(C(=O)COC(=O)c1ccccc1O)c1nc2ccccc2s1`, which solubility kinetic is on record?
Its solubility kinetic is 2.4 µg/mL (≈ 6.73 µM).

For `CCn1c2ccccc2c2cc(CC(N)=O)ccc21`, which solubility kinetic is on record?
The solubility kinetic was 8 µg/mL (≈ 31.7 µM).

Which solubility kinetic does the source give for `CCOc1cccc(N2C(=O)/C(=C/c3ccco3)C(=O)NC2=S)c1` here?
The solubility kinetic was 12.3 µg/mL (≈ 35.9 µM).

With `N#Cc1c(N2CCOCC2)nsc1-c1ccccc1` as the molecule, how does the solubility kinetic read?
Its solubility kinetic is 1.6 µg/mL (≈ 5.9 µM).

For `O=[N+]([O-])/C=C1/CCCCCN1`, which solubility kinetic is on record?
The solubility kinetic was over 23.4 µg/mL.

Which solubility kinetic does the source give for `CC(C)n1c(CN(C)c2ccccc2)nc2ccccc21.Cl` here?
The solubility kinetic was 42.4 µg/mL.

With `Cc1nc2ccccc2n1Cc1ccc(Cl)cc1` as the molecule, how does the solubility kinetic read?
Its solubility kinetic is 24.9 µg/mL (≈ 97 µM).

For `COc1ccc(CCn2c(C)cc(C(=O)COC(=O)c3cnccn3)c2C)cc1`, which solubility kinetic is on record?
Its solubility kinetic is 37.3 µg/mL (≈ 94.8 µM).

With `Cc1ccc(Sc2cnccc2C#N)cc1` as the molecule, how does the solubility kinetic read?
The solubility kinetic was 15.4 µg/mL (≈ 68.1 µM).

Which solubility kinetic does the source give for `CC(=O)c1ccc(S(=O)(=O)NCC(=O)NC(c2nc3ccccc3[nH]2)C(C)C)cc1` (stereo not given) here?
The solubility kinetic was over 64.3 µg/mL.

With `Cc1nn(CC(=O)O)c(C)c1NC(=O)c1cccs1` as the molecule, how does the solubility kinetic read?
Its solubility kinetic is over 41.9 µg/mL.

With `O=C(Nc1ccccc1C(=O)N1CCCCC1)c1cccs1` as the molecule, how does the solubility kinetic read?
Its solubility kinetic is over 47.2 µg/mL.

Which solubility kinetic does the source give for `COc1ccc(C(=O)O)cc1S(=O)(=O)NC(C)C` here?
The solubility kinetic was over 41 µg/mL.

Which solubility kinetic does the source give for `CC(C)CN1CCC(CN(C)Cc2nc(-c3cnccn3)no2)CC1` here?
The solubility kinetic was 45.2 µg/mL (≈ 131 µM).

For `COC(=O)c1sccc1NC(=O)Nc1cc(C)cc(C)c1`, which solubility kinetic is on record?
Its solubility kinetic is 2.7 µg/mL (≈ 8.87 µM).

With `Cc1nc([N+](=O)[O-])c(SCC(N)=O)n1Cc1ccccc1` as the molecule, how does the solubility kinetic read?
Its solubility kinetic is over 46 µg/mL.

With `Cc1ccccc1C(=O)Nc1ccc(N(C)C)c2ccccc12` as the molecule, how does the solubility kinetic read?
Its solubility kinetic is 13.6 µg/mL (≈ 44.7 µM).

Which solubility kinetic does the source give for `COc1ccc(OC)c(N/C(N)=N/c2nc(C)cc(C)n2)c1` here?
Its solubility kinetic is 40.5 µg/mL (≈ 134 µM).

With `O=C(c1ccccc1)N1CCn2c1nc1ccccc12` as the molecule, how does the solubility kinetic read?
The solubility kinetic was 9.2 µg/mL (≈ 34.9 µM).

For `Cc1ccccc1C(=O)Nc1ccnc(-c2ccncc2)n1`, which solubility kinetic is on record?
The solubility kinetic was 0.5 µg/mL (≈ 1.72 µM).

Which solubility kinetic does the source give for `COCCCNC(=O)C1CC(=O)N(CCc2ccc(F)cc2)C1` (stereo not given) here?
The solubility kinetic was over 48.4 µg/mL.

For `Nc1cc(C(F)(F)F)cc([N+](=O)[O-])c1N`, which solubility kinetic is on record?
Its solubility kinetic is over 33.2 µg/mL.

For `COc1ccccc1CCNC(=O)c1ccc(Br)s1`, which solubility kinetic is on record?
The solubility kinetic was 29 µg/mL (≈ 85.2 µM).

For `COc1cccc(OCCNC(=O)Nc2cc(F)c(F)cc2Cl)c1`, which solubility kinetic is on record?
Its solubility kinetic is under 0.4 µg/mL.

With `Cc1ccc(N2C(=O)CC(=O)NC2=O)c(C)c1` as the molecule, how does the solubility kinetic read?
The solubility kinetic was over 34.8 µg/mL.

Which solubility kinetic does the source give for `CC(C)CC1NC(=O)N(CC(=O)N(C)C2CCCCC2)C1=O` (stereo not given) here?
Its solubility kinetic is over 46.4 µg/mL.

For `O=C(c1ccccc1)C1CCN(C(=O)c2ccc(Cl)cc2)CC1`, which solubility kinetic is on record?
Its solubility kinetic is over 49.2 µg/mL.

Which solubility kinetic does the source give for `COc1ccc(Br)cc1CN1CCSCC1` here?
The solubility kinetic was 29.3 µg/mL (≈ 96.9 µM).

Which solubility kinetic does the source give for `O=C1c2cccc3cc([N+](=O)[O-])cc(c23)C(=O)N1CC1CCCO1` (stereo not given) here?
Its solubility kinetic is 5.7 µg/mL (≈ 17.5 µM).

For `CCCC(=O)NCc1ccccc1Cl`, which solubility kinetic is on record?
The solubility kinetic was 30.2 µg/mL (≈ 143 µM).

With `CCc1cc2c(SCc3ccc(C(=O)OC)o3)ncnc2s1` as the molecule, how does the solubility kinetic read?
Its solubility kinetic is 1.8 µg/mL (≈ 5.38 µM).

For `O=C(CN1C(=O)NC2(CCCCC2)C1=O)Nc1ccc(Cl)cc1`, which solubility kinetic is on record?
The solubility kinetic was 11.3 µg/mL (≈ 33.7 µM).

With `Cc1cnc(NCCc2ccccc2)s1` as the molecule, how does the solubility kinetic read?
Its solubility kinetic is 23 µg/mL (≈ 105 µM).

Which solubility kinetic does the source give for `CN(C)[C@@H]1C(=O)C(C(N)=O)=C(O)[C@@]2(O)C(=O)C3=C(O)c4c(O)cccc4[C@@](C)(O)C3[C@H](O)C12.Cl` (stereo not given in full) here?
The solubility kinetic was 70.2 µg/mL.

For `CC(=O)N1CCN(c2ccccc2NC(=O)c2ccco2)CC1`, which solubility kinetic is on record?
Its solubility kinetic is over 47 µg/mL.

For `Cc1ccc(N2CCN(c3ccc([N+](=O)[O-])cn3)CC2)c(C)c1`, which solubility kinetic is on record?
Its solubility kinetic is 0.3 µg/mL (≈ 0.96 µM).

For `COc1ccccc1C(=O)NCCCNC(=O)c1cccnc1`, which solubility kinetic is on record?
The solubility kinetic was 36.8 µg/mL (≈ 117 µM).

Which solubility kinetic does the source give for `O=C(NCCc1c[nH]c2ccccc12)C(=O)c1c[nH]c2ccccc12` here?
Its solubility kinetic is 4.2 µg/mL (≈ 12.7 µM).

Which solubility kinetic does the source give for `COc1ccc(NC(=O)CSc2nnc(-c3cccnc3)n2C)cc1` here?
Its solubility kinetic is over 53.3 µg/mL.

Which solubility kinetic does the source give for `OC1CCN(Cc2ccc3ccccc3c2)CC1` here?
The solubility kinetic was 26.6 µg/mL (≈ 110 µM).

Which solubility kinetic does the source give for `O=S(=O)(CCSc1ccc(C(F)(F)F)cn1)c1ccccc1` here?
The solubility kinetic was 4.7 µg/mL (≈ 13.5 µM).

For `Cc1ccc(C)c(NC(=O)NC2CCCCCCC2)c1`, which solubility kinetic is on record?
The solubility kinetic was under 0.3 µg/mL.

With `O=C(c1ccccc1NS(=O)(=O)c1ccccc1)N1CCCCCC1` as the molecule, how does the solubility kinetic read?
The solubility kinetic was over 53.8 µg/mL.

For `Cc1ccc(/C=C/C(=O)O)cc1S(=O)(=O)N1CCCCC1`, which solubility kinetic is on record?
Its solubility kinetic is over 46.4 µg/mL.

With `COC(=O)c1cc(S(=O)(=O)N2CCC(C(N)=O)CC2)oc1C` as the molecule, how does the solubility kinetic read?
The solubility kinetic was over 49.6 µg/mL.
